Values after ≈ are worked out from the molar mass of the structure shown.

From US4463003A, “Cephem compounds” (Fujisawa Pharmaceutical Co., Ltd., priority 1982, dated 1984) come the findings set out here.

One series deals with Proteus mirabilis 18. Kind of series: Minimal inhibitory concentrations, two-fold agar-plate dilution method. In kind it is cell-based. As to conditions: HI-agar, 37° C., 20 hours. As to the method:
(§1) (A) Minimal inhibitory concentrations In vitro antibacterial activity was determined by the two-fold agar-plate dilution method as described below. One loopful of an overnight culture of each test strain in Trypticase-soy broth (10^8 viable cells per ml) was streaked on heart infusion agar (HI-agar) containing graded concentrations of representative test compound, and the minimal inhibitory concentration (MIC) was expressed in terms of μg/ml after incubation at 37° C. for 20 hours.

For the next series, the system named is Proteus vulgaris 2. The description is as above. As to conditions: HI-agar, 37° C., 20 hours. In kind it is cell-based. As to the method:
as §1

The next series in a line: in vivo. As to conditions: rat, po, 100 mg/kg.
The nature of series [1]: Urinary excretion after oral administration in rats. As to conditions: rat, urine, 100 mg/kg, 0 to 24 hours, bioassay, read-out: Urinary recovery in 24 hours (%). Type of series: in vivo.
Method: Urine of rats was collected with a urine collector at 0 to 6, and 6 to 24 hours after oral administration of 100 mg/kg of the test antibiotic. The antibiotic levels in the urine samples were bioassayed with the standard solution prepared with M/15 phosphate buffer (pH 7.0) and the urinary recovery in 24 hours was calculated.

Method for in vivo: Rats anesthetized with pentobarbital were fixed in supine position, and a polyethylene cannula was inserted into the bile duct. Bile samples were collected at 0 to 3, 3 to 6, and 6 to 24 hours after oral administration of 100 mg/kg of the test antibiotic. The antibiotic levels in the bile samples were bioassayed with the standard solution prepared with M/15 phosphate buffer (pH 7.0) and the biliary recovery in 24 hours were calculated.

Take `O=C(O)CO/N=C(\C(=O)NC1C(=O)N2C(C(=O)O)=C(CSc3ccc4nnnn4n3)CSC12)c1ncsn1` (stereo not drawn) [Compound .circle.A, 7-[2-Carboxymethoxyimino-2-(1,2,4-thiadiazol-3-yl)acetamido]-3-(tetrazolo[1,5-b]pyridazin-6-yl)thiomethyl-3-cephem-4-carboxylic acid (syn isomer)]: the MIC in the series on Proteus mirabilis 18 and in the series with Proteus vulgaris 2 was 0.05 µg/mL (≈ 0.0864 µM) throughout. The dose excreted at 24 h in the series “in vivo” was determined as 12.6%; in series [1], 10.6%.
